Laboratory results published in ChEMBL document CHEMBL1137602, “Synthesis of aromatic compounds containing a 1,1-dialkyl-2-trifluoromethyl group, a bioisostere of the tert-alkyl moiety” (Bioorg Med Chem Lett, 2007).

Columns and labels:
[1] = Intrinsic clearance in human liver microsomes; format: ADME, Microsome
[2] = target: Transient receptor potential cation channel subfamily V member 1 (Homo sapiens, UniProt Q8NER1); assay: Antagonist activity at human TRPV1 receptor; format: functional
[3] = system: Liver microsomes; assay: Metabolic stability in human liver microsomes; format: ADME, Microsome

Chain of Transient receptor potential cation channel subfamily V member 1 (Q8NER1 whole entry): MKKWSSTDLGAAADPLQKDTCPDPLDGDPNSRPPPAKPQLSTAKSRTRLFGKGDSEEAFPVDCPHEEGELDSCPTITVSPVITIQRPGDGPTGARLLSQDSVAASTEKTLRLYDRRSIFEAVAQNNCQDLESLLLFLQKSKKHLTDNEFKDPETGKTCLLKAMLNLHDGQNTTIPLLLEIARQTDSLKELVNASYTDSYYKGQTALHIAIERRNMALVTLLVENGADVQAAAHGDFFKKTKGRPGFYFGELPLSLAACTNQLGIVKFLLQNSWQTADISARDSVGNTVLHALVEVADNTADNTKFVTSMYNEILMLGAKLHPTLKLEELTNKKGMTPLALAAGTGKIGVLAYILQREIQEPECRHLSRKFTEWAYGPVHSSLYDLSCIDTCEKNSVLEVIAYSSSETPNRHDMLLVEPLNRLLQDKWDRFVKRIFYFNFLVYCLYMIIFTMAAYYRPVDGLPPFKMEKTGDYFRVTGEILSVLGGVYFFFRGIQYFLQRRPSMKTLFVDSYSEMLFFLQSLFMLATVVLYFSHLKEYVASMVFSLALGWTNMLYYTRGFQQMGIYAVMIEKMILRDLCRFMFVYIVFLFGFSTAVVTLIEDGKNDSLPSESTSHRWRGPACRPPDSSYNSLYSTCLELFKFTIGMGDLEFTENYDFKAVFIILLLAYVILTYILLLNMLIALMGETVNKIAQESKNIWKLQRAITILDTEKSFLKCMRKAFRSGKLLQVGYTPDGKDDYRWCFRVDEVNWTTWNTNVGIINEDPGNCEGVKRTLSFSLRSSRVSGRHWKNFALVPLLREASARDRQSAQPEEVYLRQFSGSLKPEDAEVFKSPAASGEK

| Structure (SMILES) | CLint scaled [1] | IC50 [2] | microsomal CLint [1] | Activity [3] |
| --- | --- | --- | --- | --- |
| CC(C)(C)c1ccc(NC(=O)c2ccc(-c3ncccc3Cl)cc2)cc1 | 168 mL/min/kg | 0.037 µM | – | – |
| COc1ccc(C(C)(C)C)cc1CN[C@H]1CCCN[C@H]1c1ccccc1 | – | – | 87.9 µL/min/mg | – |
| CC(C)(c1ccc(NC(=O)c2ccc(-c3ncccc3Cl)cc2)cc1)C(F)(F)F | 46 mL/min/kg | 0.042 µM | – | Active |
| COc1ccc(C(C)(C)C(F)(F)F)cc1CN[C@H]1CCCN[C@H]1c1ccccc1 | – | – | 44.7 µL/min/mg | Active |
| O=C(Nc1ccc(C(F)(F)F)cc1)c1ccc(-c2ncccc2Cl)cc1 | < 10.5 mL/min/kg | 0.2 µM | – | – |
